Data as given in US11731943B2, “Therapeutic compounds, compositions and methods of use thereof” (priority 2016, dated 2023).
Like-named read-outs stand apart in the source and are kept apart here.

Assays:
[1] = biological target: isolated recombinant JAK2 kinase domain (Homo sapiens (Human), UniProt O60674); experiment: JAK2 enzyme assay (Caliper LabChip, Ki); type: biochemical
Outline: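 Caliper LabChip readout of phosphorylated product as a fraction of total substrate, a fluorescently N-terminally labelled JAK3-derived peptide. Isolated human JAK kinase domains were incubated 30 min at 22 °C before EDTA quench (50 mM final).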

[2] = tested on: JAK1-dependent STAT6 phosphorylation downstream of IL-13 stimulation in BEAS-2B human bronchial epithelial cells; experiment: JAK1 pathway assay in BEAS-2B cells (IL-13-pSTAT6, MSD); type: cell-based; conditions: BEAS-2B cells, IL-13 stimulation, read-out: IL-13 p-STAT6 BEAS-2B IC50
[3] = biological target: isolated recombinant JAK1 kinase domain (Homo sapiens (Human), UniProt P23458); experiment: JAK1 enzyme assay (Caliper LabChip, Ki); type: biochemical; conditions: read-out: JAK1 Ki
Outline: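 Ki derived via Morrison tight-binding model, ATP-competitive correction applied. Read-out: product/total ratio of a 5-carboxyfluorescein-tagged JAK3 peptide separated on Caliper LabChip after phosphorylation by isolated human JAK1 kinase domain (22 °C, 30 min; EDTA quench, 50 mM final).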

isolated recombinant JAK1 kinase domain, sequence (P23458 875-1153): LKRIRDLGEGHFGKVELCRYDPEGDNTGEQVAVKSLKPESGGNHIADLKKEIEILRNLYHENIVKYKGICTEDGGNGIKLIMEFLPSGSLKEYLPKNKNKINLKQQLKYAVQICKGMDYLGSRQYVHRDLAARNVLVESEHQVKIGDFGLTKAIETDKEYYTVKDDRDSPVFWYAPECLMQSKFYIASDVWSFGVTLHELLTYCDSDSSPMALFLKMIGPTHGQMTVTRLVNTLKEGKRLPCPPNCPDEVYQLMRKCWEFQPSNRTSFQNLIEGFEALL
isolated recombinant JAK2 kinase domain, sequence (O60674 849-1124): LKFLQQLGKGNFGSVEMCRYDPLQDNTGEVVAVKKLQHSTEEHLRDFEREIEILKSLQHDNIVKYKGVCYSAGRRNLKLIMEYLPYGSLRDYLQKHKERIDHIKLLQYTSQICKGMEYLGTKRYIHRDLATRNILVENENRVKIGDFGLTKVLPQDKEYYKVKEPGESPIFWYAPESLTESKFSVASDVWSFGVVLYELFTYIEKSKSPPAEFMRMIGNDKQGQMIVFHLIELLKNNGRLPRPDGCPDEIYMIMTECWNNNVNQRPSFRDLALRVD

Structure (SMILES) | Ki [1] [nM] | IC50 ([2]; Homo sapiens, BEAS-2B) [nM] | Ki [3] [nM] | IC50 [2] [nM]
C=Cc1ccc(CN2CCC(CC#N)(n3cc(C(N)=O)c(NC(=O)OC)n3)C(F)C2)cc1O (stereo not drawn) [Example 284, methyl N-[4-carbamoyl-1-[4-(cyanomethyl)-3-fluoro-1-[(3-hydroxy-4-vinyl-phenyl)methyl]-4-piperidyl]pyrazol-3-yl]carbamate] | 0.5 | 48 | 0.3 | 
N#CCC1(n2cc(C(N)=O)c(NC(=O)C3CC3)n2)CCN(Cc2ccc(-n3cccn3)cc2)CC1 [Example 87] | 25.1 | 350 | 2.2 | 
N#CCC1(n2cc(C(N)=O)c(NC(=O)OC3CC3)n2)CCN(Cc2ccc(-c3ccccc3)c(O)c2)CC1 [Example 209, cyclopropyl N-[4-carbamoyl-1-[4-(cyanomethyl)-1-[(3-hydroxy-4-phenyl-phenyl)methyl]-4-piperidyl]pyrazol-3-yl]carbamate] | 3.8 | 98 | 0.49 | 
COC(=O)Nc1nn(C2(CC#N)CCN(Cc3ccc(-c4ccco4)c(O)c3)CC2F)cc1C(N)=O (stereo not drawn) [Example 224, methyl N-[4-carbamoyl-1-[4-(cyanomethyl)-3-fluoro-1-[[4-(2-furyl)-3-hydroxy-phenyl]methyl]-4-piperidyl]pyrazol-3-yl]carbamate] | 0.15 | 19 | 0.16 | 
N#CCC1(n2cc(C(N)=O)c(NC(=O)C3CC3)n2)CCN(Cc2ccc(C#CC3CC3)cc2)CC1 [Example 299, 1-(4-(Cyanomethyl)-1-(4-(cyclopropylethynyl)benzyl)piperidin-4-yl)-3-(cyclopropanecarboxamido)-1H-pyrazole-4-carboxamide] | 3 | 85 | 1.1 | 
N#CCC1(n2cc(C(N)=O)c(NC(=O)C3CC3C#N)n2)CCN(Cc2ccc(-c3ccccc3)nc2F)CC1F (stereo not drawn) [Example 227, 3-[(2-cyanocyclopropanecarbonyl)amino]-1-[4-(cyanomethyl)-3-fluoro-1-[(2-fluoro-6-phenyl-3-pyridyl)methyl]-4-piperidyl]pyrazole-4-carboxamide] | 0.63 | 54 | 0.31 | 
COC(=O)Nc1nn(C2(CC#N)CCN(Cc3ccc(-n4nccn4)c(O)c3)CC2F)cc1C(N)=O (stereo not drawn) [Example 287, methyl N-[4-carbamoyl-1-[4-(cyanomethyl)-3-fluoro-1-[[3-hydroxy-4-(triazol-2-yl)phenyl]methyl]-4-piperidyl]pyrazol-3-yl]carbamate] | 0.43 | 32 | 0.35 | 
N#CCC1(n2cc(C(N)=O)c(NC(=O)C3CC3)n2)CCN(Cc2ccc(-c3ccccc3)nc2F)CC1 [Example 188, 1-[4-(cyanomethyl)-1-[(2-fluoro-6-phenyl-3-pyridyl)methyl]-4-piperidyl]-3-(cyclopropanecarbonylamino) pyrazole-4-carboxamide] | 1.4 | 34 | 0.6 | 
N#CCC1(n2cc(C(N)=O)c(NC(=O)C3CC3C#N)n2)CCN(CC2CCC(c3ccccc3)CC2)CC1F (stereo not drawn) [Example 228, 3-[(2-cyanocyclopropanecarbonyl)amino]-1-[4-(cyanomethyl)-3-fluoro-1-[(4-phenylcyclohexyl)methyl]-4-piperidyl]pyrazole-4-carboxamide] | 7.7 |  | 1.5 | 77
COC(=O)Nc1nn(C2(CC#N)CCN(Cc3ccc(-c4ccc(C)o4)c(O)c3)CC2F)cc1C(N)=O (stereo not drawn) [Example 247, methyl N-[4-carbamoyl-1-[4-(cyanomethyl)-3-fluoro-1-[[3-hydroxy-4-(5-methyl-2-furyl)phenyl]methyl]-4-piperidyl]pyrazol-3-yl]carbamate] | 0.43 | 26 | 0.35 | 
Cc1ccc(OC2(C)CN([C@H]3CC[C@](CC#N)(n4cc(C(N)=O)c(NC(=O)C5CC5)n4)CC3)C2)cc1 [Example 300, 1-[1-(cyanomethyl)-4-[3-methyl-3-(4-methylphenoxy)azetidin-1-yl]cyclohexyl]-3-(cyclopropanecarbonylamino) pyrazole-4-carboxamide] | 1.3 | 43 | 1.5 | 
N#CCC1(n2cc(C(N)=O)c(NC(=O)C3CC3C#N)n2)CCN(CC2CCC(c3ccccc3)CC2)CC1F (stereo not drawn) [Example 231, 3-[(2-cyanocyclopropanecarbonyl)amino]-1-[4-(cyanomethyl)-3-fluoro-1-[(4-phenylcyclohexyl)methyl]-4-piperidyl]pyrazole-4-carboxamide] | 8.3 |  | 0.36 | 19
N#CCC1(n2cc(C(N)=O)c(NC(=O)C3CC3)n2)CCN(Cc2ccc(-c3ccoc3)cc2)CC1F (stereo not drawn) [Example 214, 1-[4-(cyanomethyl)-3-fluoro-1-[[4-(3-furyl)phenyl]methyl]-4-piperidyl]-3-(cyclopropanecarbonylamino) pyrazole-4-carboxamide] | 0.62 | 42 | 0.31 | 
N#CCC1(n2cc(C(N)=O)c(NC(=O)C3CC3)n2)CCN(Cc2ccc(-c3csc(Cl)c3)c(F)c2)CC1 [Example 141, 1-[1-[[4-(5-chloro-3-thienyl)-3-fluoro-phenyl]methyl]-4-(cyanomethyl)-4-piperidyl]-3-(cyclopropanecarbonylamino) pyrazole-4-carboxamide] | 3.4 | 62 | 0.8 | 
N#CCC1(n2cc(C(N)=O)c(NC(=O)C3CC3)n2)CCN(Cc2ccc(-c3cccc(F)c3)cc2)CC1 [Example 143, 1-[4-(cyanomethyl)-1-[[4-(3-fluorophenyl)phenyl]methyl]-4-piperidyl]-3-(cyclopropanecarbonylamino) pyrazole-4-carboxamide] | 5.5 | 49 | 0.7 | 
C#Cc1ccc(CN2CCC(CC#N)(n3cc(C(N)=O)c(NC(=O)OC)n3)C(F)C2)c(Cl)c1 (stereo not drawn) [Example 289, methyl N-[4-carbamoyl-1-[1-[(2-chloro-4-ethynyl-phenyl)methyl]-4-(cyanomethyl)-3-fluoro-4-piperidyl]pyrazol-3-yl]carbamate] | 0.55 | 15 | 0.26 | 
CC(=O)Nc1cc(CN2CCC(CC#N)(n3cc(C(N)=O)c(NC(=O)C4CC4)n3)CC2)ccc1Cl [Example 81] | 38.4 | > 1000 | 4.4 | 
CCc1cccc(-c2ccc(CN3CCC(CC#N)(n4cc(C(N)=O)c(NC(=O)C5CC5)n4)CC3)cc2)c1 [Example 154, 1-[4-(cyanomethyl)-1-[[4-(3-ethylphenyl)phenyl]methyl]-4-piperidyl]-3-(cyclopropanecarbonylamino) pyrazole-4-carboxamide] | 8.7 | 116 | 1.5 | 
COC(=O)Nc1nn(C2(CC#N)CCN(Cc3ccc(-c4ccccc4)nc3)CC2F)cc1C(N)=O (stereo not drawn) [Example 196, methyl N-[4-carbamoyl-1-[4-(cyanomethyl)-3-fluoro-1-[(6-phenyl-3-pyridyl)methyl]-4-piperidyl]pyrazol-3-yl]carbamate] | 0.27 | 30 | 0.26 | 
CCc1ccc(-c2ccc(CN3CCC(CC#N)(n4cc(C(N)=O)c(NC(=O)OC)n4)C(F)C3)cc2)o1 (stereo not drawn) [Example 232, methyl N-[4-carbamoyl-1-[4-(cyanomethyl)-1-[[4-(5-ethyl-2-furyl)phenyl]methyl]-3-fluoro-4-piperidyl]pyrazol-3-yl]carbamate] | 0.89 | 20 | 0.32 | 
COc1cc(CN2CCC(CC#N)(n3cc(C(N)=O)c(NC(=O)C4CC4)n3)CC2)ccc1-c1ccccc1 [Example 162, 1-[4-(cyanomethyl)-1-[(3-methoxy-4-phenyl-phenyl)methyl]-4-piperidyl]-3-(cyclopropanecarbonylamino) pyrazole-4-carboxamide] | 10.6 | 293 | 3.1 | 
N#CCC1(n2cc(C(N)=O)c(NC(=O)C3CC3)n2)CCN(Cc2ccc(C3CCCCC3)cc2)CC1F (stereo not drawn) [Example 271, 1-[4-(cyanomethyl)-1-[(4-cyclohexylphenyl)methyl]-3-fluoro-4-piperidyl]-3-(cyclopropanecarbonylamino) pyrazole-4-carboxamide] | 15 | 83 | 2.6 | 
C#Cc1ccc(CN2CCC(CC#N)(n3cc(C(N)=O)c(NC(=O)C4CC4)n3)C(F)C2)cc1 (stereo not drawn) [Example 260, 1-[4-(cyanomethyl)-1-[(4-ethynylphenyl)methyl]-3-fluoro-4-piperidyl]-3-(cyclopropanecarbonylamino) pyrazole-4-carboxamide] | 0.35 | 32 | 0.25 | 
CCn1ccc(-c2ccc(CN3CCC(CC#N)(n4cc(C(N)=O)c(NC(=O)C5CC5)n4)C(F)C3)c(F)c2)n1 (stereo not drawn) [Example 242, 1-[4-(cyanomethyl)-1-[[4-(1-ethylpyrazol-3-yl)-2-fluoro-phenyl]methyl]-3-fluoro-4-piperidyl]-3-(cyclopropanecarbonylamino) pyrazole-4-carboxamide] | 0.51 | 55 | 0.6 | 
COC(=O)Nc1nn(C2(CC#N)CCN(Cc3ccc(-c4ccccc4)nc3F)CC2F)cc1C(N)=O (stereo not drawn) [Example 203, methyl N-[4-carbamoyl-1-[4-(cyanomethyl)-3-fluoro-1-[(2-fluoro-6-phenyl-3-pyridyl)methyl]-4-piperidyl]pyrazol-3-yl]carbamate] | 0.22 | 15 | 0.25 | 
